Data as given in patent US20030203864A1, “Treatment of cancer” (priority 2002, published 2003).
“Also recorded” adds a separate entry of the source.

How the values were obtained:
Assay type in all cases: cell-based, human
HMEC-1 cells = test: HMEC-1 proliferation assay (Coulter counter); conditions: 0.4 μM DNA enzyme
Experimental: HMEC-1 culture and proliferation assay. SV40-transformed HMEC-1 cells were grown in MCDB 131 medium with EGF (10 ng/ml) and hydrocortisone (1 μg/ml) supplements and 10% FBS. […] The cells were quantitated by Coulter counter, 24 h after the addition of serum.

HepG2 cells = test: HepG2 cell proliferation (Coulter counter); conditions: 0.75 μM DNAzyme, 5% FBS, 3 days
Experimental: HepG2 cells were routinely grown in DMEM, pH 7.4, containing 10% fetal calf serum supplemented with antibiotics. The cells were trypsinized, resuspended in growth medium (to 10,000 cells/200 μl) and 200 μl transferred into sterile 96 well titre plates. Two days subsequently, 180 μl of the culture supernatant was removed, the cells were washed with PBS, pH 7.4, and refed with 180 μl of serum free media. After 6 h, the first transfection of DNAzyme (2 μg/200 μl wall, 0.75 μM final) was performed in tubes containing serum free media using FuGENE6 at a ratio of 1:3 (μg:μl). After 15 min incubation at room temperature, 180 μl of the culture supernantant was replaced with 180 μl of the transfection mix, After 24 h, 180 μl of the supernatant was replaced with 180 μl of new transfection mix, but this time in 5% FBS media. After 3 days, the cells were washed in PBS, pH 7.4, and resuspended by trypsinization in 100 μl trypsin-EDTA. The cells were shaken for approximately 5 min to ensure the cells were in suspension. The entire suspension was placed into 10 ml of Isoton II. That all the cells were transferred was ensured by pipetting Isoton II solution from tubes back into wells several times. Using Isoton II only, background cell number was determined. Each sample was counted three times and used to calculate mean counts and standard errors of each mean.

EGR-1 = test: Western blot of EGR-1 in HepG2 cells
Chain of EGR-1 (P18146 whole entry): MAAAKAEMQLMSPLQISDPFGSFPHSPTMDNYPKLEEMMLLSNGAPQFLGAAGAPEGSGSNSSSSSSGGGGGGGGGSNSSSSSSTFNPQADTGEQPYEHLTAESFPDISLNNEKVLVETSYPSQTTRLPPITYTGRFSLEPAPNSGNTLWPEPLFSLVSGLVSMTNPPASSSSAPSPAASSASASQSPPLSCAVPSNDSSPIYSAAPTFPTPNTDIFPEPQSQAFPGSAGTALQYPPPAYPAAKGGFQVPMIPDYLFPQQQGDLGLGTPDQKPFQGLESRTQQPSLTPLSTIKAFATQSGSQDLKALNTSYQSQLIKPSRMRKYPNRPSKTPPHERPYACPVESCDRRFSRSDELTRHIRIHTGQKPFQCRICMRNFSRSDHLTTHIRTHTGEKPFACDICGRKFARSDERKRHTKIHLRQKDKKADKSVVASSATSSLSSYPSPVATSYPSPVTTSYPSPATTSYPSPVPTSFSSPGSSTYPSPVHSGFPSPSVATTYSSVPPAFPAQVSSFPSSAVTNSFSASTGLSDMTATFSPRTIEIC

## DzA: DNAzyme targeting human EGR-1 mRNA (arms hybridize to nts 189-207), 5′-caggggacaGGCTAGCTACAACGAcgttgcggg (DNA CAGGGGACAGGCTAGCTACAACGACGTTGCGGG; DNA, backbone and methylation of C not given here)
HMEC-1 cells
  HMEC-1 replication (total cell counts): inhibited
HepG2 cells
  serum-stimulated HepG2 cell proliferation: almost completely suppressed; also recorded: inhibited
EGR-1
  EGR-1 expression in HepG2 cells: strongly inhibited
